From US20040147505A1, “Novel heteroaryl-diazabicyclo alkanes as cns-modulators” (priority 2001, published 2004)
Counter-ions that a name gives are not always drawn.

What was measured:
serotonin transporter = target: T1, serotonin transporter (Rattus norvegicus, UniProt P31652); assay: In vitro inhibition of 3H-5-hydroxytryptamine (3H-5-HT, serotonin) uptake in cortical synaptosomes; assay type: biochemical; conditions: cortical synaptosomes from male Wistar rats; 3H-5-HT 1 nM; 30 min at 37° C.
T1 construct: Cerebral cortices from male Wistar rats (150-200 g) are homogenized; from tissue; host or cells: rat cerebral cortex synaptosomes (P2 pellet)
T1 sequence (P31652 whole entry): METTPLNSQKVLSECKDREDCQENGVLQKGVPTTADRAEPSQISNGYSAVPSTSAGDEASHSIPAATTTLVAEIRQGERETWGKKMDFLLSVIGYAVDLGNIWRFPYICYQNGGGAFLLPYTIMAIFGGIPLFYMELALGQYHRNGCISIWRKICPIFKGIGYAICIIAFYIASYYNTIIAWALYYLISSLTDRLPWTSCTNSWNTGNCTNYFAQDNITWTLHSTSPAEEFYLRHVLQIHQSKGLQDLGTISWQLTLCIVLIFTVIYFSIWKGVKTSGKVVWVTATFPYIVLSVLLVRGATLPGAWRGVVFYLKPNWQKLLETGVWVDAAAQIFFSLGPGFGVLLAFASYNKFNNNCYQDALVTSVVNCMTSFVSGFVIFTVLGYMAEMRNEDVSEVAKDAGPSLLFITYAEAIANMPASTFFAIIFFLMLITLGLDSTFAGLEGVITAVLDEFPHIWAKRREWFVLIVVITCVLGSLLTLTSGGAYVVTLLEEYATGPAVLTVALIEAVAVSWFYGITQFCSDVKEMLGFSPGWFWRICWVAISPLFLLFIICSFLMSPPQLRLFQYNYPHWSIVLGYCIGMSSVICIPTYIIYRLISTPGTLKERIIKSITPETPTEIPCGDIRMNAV
Protocol: The activity of the serotonin transporter integral protein can be measured in vitro by synaptosomal uptake of ^3H-5-hydroxytryptamine.
Preparations are performed at 0-4° C. unless otherwise indicated. […] Monoamine oxidase activity will be inhibited in the presence of pargyline. The homogenate is centrifuged at 1000×g for 10 min. The resulting supernatant is then centrifuged at 27,000×g for 50 min and the supernatant is discarded.
Non-specific uptake is determined using citalopram (1 μM, final concentration). After incubation the samples are poured directly onto Whatman GF/C glass fibre filters under suction. The filters are then washed three times with 5 ml of ice-cold 0.9% (w/v) NaCl solution. The amount of radioactivity on the filters is determined by conventional liquid scintillation counting. Specific uptake is calculated as the difference between total uptake and non-specific uptake.

[1] = target: T2, nAChRs comprised of α4 and β2 subunits (Rattus norvegicus, UniProt P09483+P12390); assay: In vitro inhibition of 3H-cytisine binding; conditions: cerebral cortex homogenate from male Wistar rats; 3H-cytisine 1 nM; 90 min at 2° C.
T2 construct: Cerebral corticies from male Wistar rats (150-250 g) are homogenized; from tissue; host or cells: rat cerebral cortex membrane homogenate
T2 sequence (P12390 25-500): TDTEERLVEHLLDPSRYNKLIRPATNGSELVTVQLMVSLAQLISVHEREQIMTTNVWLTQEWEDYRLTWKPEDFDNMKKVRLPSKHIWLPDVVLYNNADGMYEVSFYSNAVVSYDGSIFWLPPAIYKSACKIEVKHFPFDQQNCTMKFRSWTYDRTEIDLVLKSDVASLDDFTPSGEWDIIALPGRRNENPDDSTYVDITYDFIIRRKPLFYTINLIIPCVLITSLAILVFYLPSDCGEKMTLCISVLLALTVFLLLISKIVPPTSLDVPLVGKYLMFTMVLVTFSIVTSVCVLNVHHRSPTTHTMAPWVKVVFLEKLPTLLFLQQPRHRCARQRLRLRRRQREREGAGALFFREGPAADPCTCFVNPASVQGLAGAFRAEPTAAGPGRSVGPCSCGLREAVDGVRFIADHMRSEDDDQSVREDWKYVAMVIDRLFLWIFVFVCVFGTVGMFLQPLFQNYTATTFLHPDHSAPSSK
T2 sequence (P09483 31-630): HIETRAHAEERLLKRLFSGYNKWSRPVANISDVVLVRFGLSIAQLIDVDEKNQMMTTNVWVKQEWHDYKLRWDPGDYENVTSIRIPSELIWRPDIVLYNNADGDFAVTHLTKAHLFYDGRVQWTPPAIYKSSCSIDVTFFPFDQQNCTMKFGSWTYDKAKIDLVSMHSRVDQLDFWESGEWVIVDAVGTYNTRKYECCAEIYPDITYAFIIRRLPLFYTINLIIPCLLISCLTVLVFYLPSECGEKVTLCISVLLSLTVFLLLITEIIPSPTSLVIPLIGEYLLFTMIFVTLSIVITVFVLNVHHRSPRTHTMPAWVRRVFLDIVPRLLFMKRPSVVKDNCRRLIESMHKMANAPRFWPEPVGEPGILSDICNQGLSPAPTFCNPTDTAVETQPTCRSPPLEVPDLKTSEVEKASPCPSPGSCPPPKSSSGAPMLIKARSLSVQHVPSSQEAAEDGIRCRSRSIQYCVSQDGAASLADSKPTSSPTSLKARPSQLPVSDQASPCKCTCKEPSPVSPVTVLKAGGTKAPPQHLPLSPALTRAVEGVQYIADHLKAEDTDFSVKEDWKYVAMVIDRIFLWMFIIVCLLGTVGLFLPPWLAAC
Protocol: The predominant subtype with high affinity for nicotine is comprised of α4 and β2 subunits. nAChRs of the latter type can selectively be labelled by the nicotine agonist ^3H-cytisine.
Cerebral corticies from male Wistar rats (150-250 g) are homogenized for 20 sec in 15 ml Tris, HCl (50 mM, pH 7.4) containing 120 mM NaCl, 5 mM KCl, 1 mM MgCl2 and 2.5 mM CaCl2 using an Ultra-Turrax homogenizer. The homogenate is centrifuged at 27,000×g for 10 min. The supernatant is discarded and the pellet is resuspended in fresh buffer and centrifuged a second time. The final pellet is resuspended in fresh buffer (35 ml per g of original tissue) and used for binding assays.
Aliquots of 500 μl homogenate are added to 25 μl of test solution and 25 μl of ^3H-cytisine (1 nM, final concentration), mixed and incubated for 90 min at 2° C. Non-specific binding is determined using (−)-nicotine (100 μM, final concentration). After incubation the samples are added 5 ml of ice-cold buffer and poured directly onto Whatman GF/C glass fibre filters under suction and immediately washed with 2×5 ml ice-cold buffer. The amount of radioactivity on the filters is determined by conventional liquid scintillation counting. Specific binding is total binding minus non-specific binding.

melting point	SMILES	also measured
204 to 205 °C	Clc1ccc(N2CC3CC(CN(Cc4ccccc4)C3)C2)nn1 (as salt: fumaric acid salt)	–
183.1 to 183.3 °C	Clc1cncc(N2CC3CC(CN(Cc4ccccc4)C3)C2)n1 (as salt: fumaric acid salt)	–
213.9 to 220.8 °C	CN1CC2CC(C1)CN(c1ccc(-c3ccccc3)nn1)C2 (as salt: fumaric acid salt)	–
183.5 to 187.6 °C	C=CCN1CC2CC(C1)CN(c1ccc(-c3ccccc3)nn1)C2 (as salt: fumaric acid salt)	–

Second part, the molecule before the results:

SMILES	melting point	also measured
c1ccc(CN2CC3CC(C2)CN(c2ccc4ccccc4n2)C3)cc1 (as salt: fumaric acid salt) [Compound C3, 3-Benzyl-7-(2-quinolinyl)-3,7-diazabicyclo-[3.3.1]-nonane]	56.1 to 56.8 °C	–
O=[N+]([O-])c1ccc2nc(N3CC4CC(CN(Cc5ccccc5)C4)C3)ccc2c1 (as salt: fumaric acid salt) [Compound C6, 3-Benzyl-7-(6-nitro-2-quinolinyl)-3,7-diazabicyclo-[3.3.1]-nonane]	168 to 172 °C	–
Clc1ccc(N2CC3CNCC(C3)C2)nn1 (as salt: fumaric acid salt) [Compound F1, 3-H-7-(6-Chloro-3-pyridazinyl)-3,7-diazabicyclo-[3.3.1]-nonane]	195.5 to 196.5 °C	–
Clc1cncc(N2CC3CNCC(C3)C2)n1 (as salt: fumaric acid salt) [Compound F2, 3-H-7-(6-Chloro-2-pyrazinyl)-3,7-diazabicyclo-[3.3.1]-nonane]	180.3 to 181.9 °C	–
c1ccc(CN2CC3CC(C2)CN(c2ccc4ccccc4n2)C3)cc1 [Compound C3, 3-Benzyl-7-(2-quinolinyl)-3,7-diazabicyclo-[3.3.1]-nonane]	–	IC50 (serotonin transporter): 22 nM
O=[N+]([O-])c1ccc2nc(N3CC4CC(CN(Cc5ccccc5)C4)C3)ccc2c1 [Compound C6, 3-Benzyl-7-(6-nitro-2-quinolinyl)-3,7-diazabicyclo-[3.3.1]-nonane]	–	IC50 (serotonin transporter): 5.7 nM
Clc1ccc(N2CC3CNCC(C3)C2)nn1 [Compound F1, 3-H-7-(6-Chloro-3-pyridazinyl)-3,7-diazabicyclo-[3.3.1]-nonane]	–	IC50 [1]: 3 nM
Clc1cncc(N2CC3CNCC(C3)C2)n1 [Compound F2, 3-H-7-(6-Chloro-2-pyrazinyl)-3,7-diazabicyclo-[3.3.1]-nonane]	–	IC50 [1]: 3.4 nM
